According to patent US12201608B2, “Methods for treating Parkinson's disease by administering resiniferatoxin” (Sorrento Therapeutics, Inc., priority 2018, dated 2025):
“Also recorded” adds a separate entry of the source.

Assays:
[1] = system: dopamine and its metabolite levels in the striatum, AAV-A53T mouse model of PD-like pathology; assay: Dopamine and metabolites in ipsilateral and contralateral striatum by HPLC; format: in vivo, C57Bl/6J male mice; conditions: for dopamine levels in striatum: vs AAV-A53T vehicle
Method: For this study, a total of 110 male C57Bl/6J mice two months of age were infused with either AAV-A53T (90 mice) or AAV-Null (20 mice) into substantia nigra unilaterally to induce PD-like pathology or to serve as sham controls, respectively. Mice infused with AAV-Null (empty) vector (“sham-infused” mice) were used in order to control for the effect of the viral infusion. After 7 or 14 days of AAV-A53T mediated disease model induction, the mice were treated with RTX (0.04 μg or 0.125 μg) (5 μL volume, prepared from a 25 μg/ml RTX solution containing Polysorbate 80 at 0.03% w/v, dextrose at 0.05% w/v, Phosphate Buffer at 30 mM, and NaCl 0.54% w/v, pH 7.2, and diluted in saline as needed) by single intrathecal infusion at lumbar spinal cord area. One AAV-Null and AAV-A53T infused group per each time point were treated with vehicle instead of RTX.
The mice were then treated with RTX or vehicle by intrathecal infusion 7 or 14 days after AAV infusion. The mice were assigned to treatment groups as follows: • Group 1: 10 male mice sham-infused with AAV-null, and administered vehicle at D7. • Group 2: 15 male mice infused with AAV-A53T, and administered vehicle at D7. • Group 3: 15 male mice infused with AAV-A53T, and administered 0.04 μg of RTX at D7. • Group 4: 15 male mice infused with AAV-A53T, and administered 0.125 μg of RTX at D7. • Group 5: 10 male mice sham-infused with AAV-null, and administered vehicle at D14. • Group 6: 15 male mice infused with AAV-A53T, and administered vehicle at D14. • Group 7: 15 male mice infused with AAV-A53T, and administered 0.04 μg of RTX at D14. • Group 8: 15 male mice infused with AAV-A53T, and administered 0.125 μg of RTX at D14.
Body weight of the animals was monitored two times per week. Fine motor kinematic analysis was performed 7 weeks after AAV infusion. 8 weeks post AAV infusion, the mice were euthanized and subjected to tissue sample collection. Dopamine and its metabolites were analyzed from ipsilateral and contralateral striata by high performance liquid chromatography (HPLC).
Ipsi- and contralateral striatum were collected in 1.5 mL Eppendorf tubes, snap-frozen on dry ice (i.e. left and right separately), weighed and stored at −80° C. for HPLC analysis of dopamine and its metabolites.
Dopamine (DA), 3,4-dihydroxyphenylacetic acid (DOPAC) and homovanillic acid (HVA) concentrations in mouse striatal tissue samples were determined by high performance liquid chromatography (HPLC) method with electrochemical detection. After thawing on ice, tissue samples were homogenized (1:10, w/v) in 0.1 M perchloric acid with MSE Soniprep 150 ultrasonic disintegrator (MSE Scientific Instruments, Crawley, UK). Tissue homogenates were centrifuged for 15 min at 15000 g at 4° C. Supernatants were filtered through polypropylene membrane (GHP Acrodisc 13 0.45 μm, Pall Corporation, Ann Arbor, MI, USA) and diluted (1:1) with 0.1 M perchloric acid. The samples were transferred into plastic vials and analyzed immediately.
The ESA HPLC system (ESA Inc., Chelmsford, MA, USA) consists of a 582 solvent delivery system, a DG-1210 vacuum degasser, an 542 autosampler, a 880 thermostatted chamber, an eight-channel CoulArray® 5600 electrochemical array detector equipped with a two-channel 5014B microdialysis cell and a CoulArray® for Windows data acquisition module (version 1.00). The applied potentials are −175 mV (channel 1), +225 mV (channel 2), +350 mV (channel 3) and +450 mV (channel 4). DA and DOPAC are detected on channel 2 and HVA on channel 3. Injection volume is 10 μl.
The analytes were separated on a Zorbax SB-Aq reversed-phase column (2.1×100 mm, 3.5 μm, Agilent Technologies Inc., Little Falls, Wilmington, DE, USA) with a Zorbax SB-Aq precolumn (2.1×12.5 mm, 5 μm) in an isocratic run. The column was maintained at 35° C. The mobile phase was 100 mM monobasic sodium phosphate containing 4.75 mM citric acid monohydrate, 7 mM 1-octanesulfonic acid and 50 μM disodium EDTA-acetonitrile mixture (98:2, v/v). […]

[2] = Pilot tolerability study of intrathecal RTX infusion; format: in vivo, C57Bl/6J mice
Method: The purpose of this study was to investigate the effects of single intrathecal administration of RTX on the AAV-A53T mouse model of PD-like pathology. Prior to this study start, a pilot tolerability study was conducted in which 16 male and 16 female C57Bl/6J mice were infused with RTX at two doses (either 0.04 μg or 0.125 μg) and followed up for 24 hours thereafter to observe any possible adverse effects of the treatment.
Of the 32 total mice used in the pilot study arm, in total 4 mice died during the 24 hour monitoring period after intrathecal infusion of RTX. Two females treated with 0.125 μg dose were found dead in cage within 4-24 hours after infusion due to unknown reason.

[3] = system: AAV-A53T mouse model of Parkinson's Disease-like (PD) pathology; assay: Fine motor gait analysis accounting for left-right asymmetry (D7 data reevaluated); format: in vivo, C57Bl/6J male mice; conditions: for maximum left-right difference of hip angle: vs AAV-A53T Vehicle
Method: D7 fine motor gait analysis data from the study described above was reevaluated to determine how left-right asymmetry is manifested on kinematic parameters instead of assessing changes which occur bilaterally and that are captured in the “normal” overall gait score.
Typically, both the left and right sides of an animal are assessed for test parameters and the overall score and discriminant vector is based on the average of both the left and right-side values for a particular parameter. For example, the maximum hip angle is determined by the average of the left and right-side angle and it is similar in both AAV-Null Vehicle and AAV-A53T Vehicle groups. However, as shown in FIGS. 8A-8C when the left and right side measurements of the maximum hip angle were analyzed separately, the hip angle max of AAV-A53T Vehicle treated mice is smaller on the left side (FIG. 8A) than on the right side (FIG. 8B) when compared to AAV-Null mice.
Fine motor gait analysis was performed by creating a discriminant vector using the transformed data set, where left-right difference is used instead of the average of left and right.

[4] = high dose, 7 days after AAV-A53T infusion, statistically non-significant (one-way ANOVA)
[5] = both RTX groups, vs AAV-A53T Vehicle D7

Structure (SMILES): C=C(C)[C@]12C[C@@H](C)[C@@]34O[C@](Cc5ccccc5)(O[C@@H]1[C@@H]3C=C(COC(=O)Cc1ccc(O)c(OC)c1)C[C@]1(O)C(=O)C(C)=C[C@@H]41)O2 [RTX, Resiniferatoxin]
- dopamine and its metabolites levels, treatment effect ([1]; AAV-A53T vehicle groups vs corresponding RTX groups, striata 8 weeks after model induction): no significant effects of RTX treatment; also recorded: no significant treatment effect
- dopamine turnover ((DOPAC + HVA) / dopamine) ([1]; both doses, 7 and 14 days after AAV-A53T infusion, statistically non-significant (Kruskal-Wallis test)): minor trend towards even higher turnover rates
- DOPAC levels in striatum ([1]; groups treated at day 14): non-significant trend of lower DOPAC levels
- HVA levels in striatum ([1]; groups treated at day 14): non-significant trend of lower HVA levels
- dopamine levels in striatum ([1]; groups treated at day 14): non-significant trend of lower dopamine levels
- DOPAC levels in striatum [1, 4]: minor trend towards higher DOPAC levels
- HVA level in striatum [1, 4]: minor trend towards higher concentration
- dopamine levels in striatum [1, 4]: minor trend towards higher dopamine levels
- adverse effects in the rest of the mice ([2]; 0.04 μg or 0.125 μg, 24 hour follow-up): No significant adverse effects
- found dead in cage within 4-24 hours after infusion ([2]; 0.125 μg dose, unknown reason): Two females
- died immediately after infusion ([2]; 0.125 μg dosing group): one female and one male mouse
- mice died during the 24 hour monitoring period after intrathecal infusion ([2]; 32 mice total (16 male, 16 female), RTX 0.04 μg or 0.125 μg intrathecal): 4 mice
- maximum left-right difference of hip angle ([3]; AAV-A53T and 0.05 μg RTX (n=14)): reduction in the maximum difference
- maximum left-right difference of hip angle ([3]; AAV-A53T and 0.124 μg RTX (n=14)): reduction in the maximum difference
- hindlimb peak swing speed, left-right difference [3, 5]: reduced
- hindlimb swing speed, left-right difference [3, 5]: reduced
- left-right gait difference Discriminant Vector Score ([3]; both RTX groups, vs AAV-A53T vehicle, p<0.05 unpaired t-test): significantly lower
- diagonal interlimb coordination, left-right difference ([3]; low and high RTX dose groups): less of a a diagonal interlimb coordination difference
